# Data reported in article PMC3510438, “The transmembrane tyrosines Y56, Y91 and Y167 play important roles in determining the affinity and transport rate of the rabbit proton-coupled peptide transporter PepT1” (The International Journal of Biochemistry & Cell Biology, 2009).
# Positions count from the first letter of the chain named. Where “and” joins values, the source holds several entries; their conditions need not be identical. Equal entries are not always repeated. Where a SMILES comes first, the peptide text is derived from it.
# Legend:
# Format in all cases: cell-based, rabbit
# [1] = molecular target: T1, wild-type rPepT1 (Oryctolagus cuniculus, UniProt P36836); test: Competition of [3H]-D-Phe-L-Gln uptake into Xenopus oocytes, Ki by method of Deves and Boyd; settings: against 0.4 μM [3H]-D-Phe-L-Gln uptake
# T1 construct: expressed in transfected cells; host or cells: Xenopus laevis oocytes injected with cRNA
# T1 sequence (P36836 1-707): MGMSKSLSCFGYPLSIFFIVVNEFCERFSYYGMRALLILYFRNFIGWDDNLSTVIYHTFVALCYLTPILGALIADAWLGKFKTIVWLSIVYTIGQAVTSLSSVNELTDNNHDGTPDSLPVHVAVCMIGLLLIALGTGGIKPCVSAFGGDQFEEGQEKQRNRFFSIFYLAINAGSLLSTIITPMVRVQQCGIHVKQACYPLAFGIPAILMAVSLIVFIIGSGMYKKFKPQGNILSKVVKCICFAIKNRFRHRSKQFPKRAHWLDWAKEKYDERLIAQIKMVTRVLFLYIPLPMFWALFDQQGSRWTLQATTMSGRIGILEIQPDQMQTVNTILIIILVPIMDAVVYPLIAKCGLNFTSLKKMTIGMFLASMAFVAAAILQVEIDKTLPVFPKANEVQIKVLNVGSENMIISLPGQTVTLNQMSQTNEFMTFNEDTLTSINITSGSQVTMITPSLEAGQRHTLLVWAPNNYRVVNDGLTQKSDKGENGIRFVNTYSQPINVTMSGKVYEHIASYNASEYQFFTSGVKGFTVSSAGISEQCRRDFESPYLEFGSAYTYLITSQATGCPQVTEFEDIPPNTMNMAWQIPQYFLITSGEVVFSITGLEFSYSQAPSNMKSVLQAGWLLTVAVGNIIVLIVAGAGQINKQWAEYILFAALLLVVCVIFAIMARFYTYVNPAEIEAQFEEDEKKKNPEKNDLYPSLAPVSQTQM
# Procedure: (§1) rPepT1 constructs were linearised with XbaI (New England Biolabs, UK) and cRNA generated by in vitro transcription (T7 mMessage mMachine, Ambion, Cambridgeshire, UK). Xenopus laevis oocytes were obtained under MS222 anaesthesia (0.2%, w/v) in accordance with the UK Animals (Scientific Procedures) Act, 1986, and maintained at 18 °C in modified Barth's medium (88 mM NaCl, 1 mM KCl, 0.82 mM MgSO4, 2.4 mM NaHCO3, 0.42 mM CaCl2, 10 mM Hepes, 5 mM sodium pyruvate, 50 μg ml^−1 gentamicin (Fluka, Poole, UK), adjusted to pH 7.6 with 1 M NaOH). Transport measurements were performed at least 72 h after micro-injection of oocytes with 27nl cRNA (1 μg/μl), with medium changed daily.
# (§2) Uptake of [^3H]-D-Phe-L-Gln (17.4 Ci/mmole, custom synthesised, Cambridge Research Biochemicals, Stockton-on-Tees, UK) was performed as previously described ([Meredith, 2004]). Briefly, 5 oocytes were incubated in 100 μl of uptake medium (95 mM NaCl, 2 mM KCl, 1 mM CaCl2, 0.42 mM MgCl2, 10 mM Tris/Hepes pH 7.4 or Tris/Mes pH 5.5) with tracer (0.4 μM) [^3H]-D-Phe-L-Gln. After incubation, the oocytes were washed sequentially five times in 1 ml of ice-cold 120 mM NaCl solution, lysed individually with 100 μl 2% (w/v) SDS and liquid scintillation counted. As a control non-injected oocytes were also incubated in uptake medium with D-Phe-L-Gln as above.
# The affinity of wild-type and mutant rPepT1 transporters were assessed by competition studies with 0.4 μM [^3H]-D-Phe-L-Gln and Gly-L-Gln present in the uptake medium in concentrations from 0 to 2 mM using the protocol above, and the Ki calculated using the method of [Deves and Boyd (1989)].
# [2] = molecular target: T2, Y167Q-rPepT1 (Oryctolagus cuniculus, UniProt P36836, Y167Q); test: Uptake of tracer [3H]-D-Phe-L-Gln into Xenopus oocytes; settings: both pHout 5.5 and 7.4
# T2 construct: expressed in transfected cells; host or cells: Xenopus laevis oocytes injected with cRNA
# T2 sequence (P36836 1-707 Y167Q): T1 sequence (P36836 1-707) with Y167Q
# Procedure: as §1, §2
# [3] = molecular target: T3, Y56F-rPepT1 (Oryctolagus cuniculus, UniProt P36836, Y56F); test: as above; settings: pHout 5.5; 1 h
# T3 construct: expressed in transfected cells; host or cells: Xenopus laevis oocytes injected with cRNA
# T3 sequence (P36836 1-707 Y56F): T1 sequence (P36836 1-707) with Y56F
# Procedure: as §1, §2
Compound,Ki ([1]; pHout 5.5),Ki ([1]; pHout 7.4),reduction of uptake compared to the wild-type [2],decrease in rate of uptake compared to the wild-type [3]
NCC(=O)N[C@@H](CCC(N)=O)C(=O)O [Gly-L-Gln] (H-Gly-Gln-OH),320 µM and 330 µM,110 ± 10 µM,–,–
[^3H]-D-Phe-L-Gln,–,–,> 90%,~90%
